Molecular target: T1, recombinant human SAE enzyme (Homo sapiens, UniProt Q9UBT2)
T1 sequence (Q9UBT2 1-640): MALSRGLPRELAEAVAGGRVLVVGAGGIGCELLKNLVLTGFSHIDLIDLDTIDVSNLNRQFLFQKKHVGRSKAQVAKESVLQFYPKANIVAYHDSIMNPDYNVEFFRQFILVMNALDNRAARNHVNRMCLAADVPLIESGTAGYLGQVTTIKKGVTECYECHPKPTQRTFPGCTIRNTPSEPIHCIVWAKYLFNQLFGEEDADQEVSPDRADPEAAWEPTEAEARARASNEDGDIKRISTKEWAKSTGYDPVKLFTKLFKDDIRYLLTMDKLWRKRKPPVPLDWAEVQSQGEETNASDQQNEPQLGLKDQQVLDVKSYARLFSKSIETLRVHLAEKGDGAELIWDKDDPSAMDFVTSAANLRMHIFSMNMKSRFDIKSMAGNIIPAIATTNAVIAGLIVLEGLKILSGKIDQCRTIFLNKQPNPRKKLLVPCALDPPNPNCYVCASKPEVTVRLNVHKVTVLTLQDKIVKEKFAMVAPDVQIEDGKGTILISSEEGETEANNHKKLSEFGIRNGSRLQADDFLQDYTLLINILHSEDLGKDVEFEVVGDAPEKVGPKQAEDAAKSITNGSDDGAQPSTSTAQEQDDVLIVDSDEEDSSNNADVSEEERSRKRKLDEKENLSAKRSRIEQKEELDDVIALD
T1 sequence (Q9UBE0 1-346 partner): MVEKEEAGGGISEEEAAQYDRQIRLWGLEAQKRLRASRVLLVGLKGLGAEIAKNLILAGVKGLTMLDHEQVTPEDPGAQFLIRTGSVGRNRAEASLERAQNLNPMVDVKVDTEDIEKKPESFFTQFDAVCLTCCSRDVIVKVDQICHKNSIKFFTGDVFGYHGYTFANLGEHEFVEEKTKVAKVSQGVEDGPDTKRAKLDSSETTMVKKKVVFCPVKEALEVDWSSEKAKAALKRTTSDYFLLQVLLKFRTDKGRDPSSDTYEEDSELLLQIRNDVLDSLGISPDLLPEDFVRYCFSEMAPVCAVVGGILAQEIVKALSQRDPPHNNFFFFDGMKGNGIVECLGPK
Assay: SAE HTRF Enzyme Assay
Type: biochemical
Settings: for IC50: class symbols A-C; for inhibition at 0.111 µM: compound concentration 0.111 μM, read-out: Percent Inhibition
Outline: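 SAE 0.11 nM; ATP 0.5 μM; Sumo-Flag 0.125 μM; Ubc9-GST 0.01 μM; 250 μM GSH, 5 mM MgCl2, pH 7.5. 105 min, 24° C. EDTA/KF stop plus Eu/APC antibodies, 2 h, TR-FRET. % inhibition or IC50.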

SMILES | IC50 [nM] | inhibition at 0.111 µM [%]
NS(=O)(=O)OC[C@H]1C[C@@H](Nc2ncncc2C(=O)c2ccn(Cc3cc(F)ccc3F)n2)C[C@@H]1O [Compound I-35, {(1R,2S,4R)-4-[(5-{[1-(2,5-difluorobenzyl)-1H-pyrazol-3-yl]carbonyl}pyrimidin-4-yl)amino]-2-hydroxycyclopentyl}methyl sulfamate] | < 10 | 95
NS(=O)(=O)OC[C@H]1C[C@@H](Nc2ncncc2C(=O)c2cc(Cl)n(Cc3ccc(C(F)(F)F)o3)c2)[C@@H](F)[C@@H]1O [Compound I-36, [(1R,2R,3R,4R)-4-({5-[(5-chloro-1-{[5-(trifluoromethyl)-2-furyl]methyl}-1H-pyrrol-3-yl)carbonyl]pyrimidin-4-yl}amino)-3-fluoro-2-hydroxycyclopentyl]methyl sulfamate] | < 10 | 99
CSCCn1ccc(C(=O)c2cncnc2N[C@@H]2C[C@H](COS(N)(=O)=O)[C@@H](O)C2)n1 [Compound I-37, [(1R,2S,4R)-2-hydroxy-4-{[5-({1-[2-(methylsulfanyl)ethyl]-1H-pyrazol-3-yl}carbonyl)pyrimidin-4-yl]amino}cyclopentyl]methyl sulfamate] | 100 to 1000 | 42
NS(=O)(=O)CC[C@H]1C[C@@H](Nc2ncncc2C(=O)c2ccn(Cc3cccc(Br)c3)n2)C[C@@H]1O [Compound I-38, 2-{(1R,2S,4R)-4-[(5-{[1-(3-bromobenzyl)-1H-pyrazol-3-yl]carbonyl}pyrimidin-4-yl)amino]-2-hydroxycyclopentyl}ethanesulfonamide] | 100 to 1000 | 51
NS(=O)(=O)OC[C@H]1C[C@@H](Nc2ncncc2C(=O)c2ccn(Cc3ccccc3OC(F)(F)F)n2)C[C@@H]1O [Compound I-39, [(1R,2S,4R)-2-hydroxy-4-{[5-({1-[2-(trifluoromethoxy)benzyl]-1H-pyrazol-3-yl}carbonyl)pyrimidin-4-yl]amino}cyclopentyl]methyl sulfamate] | < 10 | 98
NS(=O)(=O)OC[C@H]1C[C@@H](Nc2ncncc2C(=O)c2ccn(Cc3cccc(Cl)c3)n2)[C@H](O)[C@@H]1O [Compound I-40, {(1R,2R,3S,4R)-4-[(5-{[1-(3-Chlorobenzyl)-1H-pyrazol-3-yl]carbonyl}pyrimidin-4-yl)amino]-2,3-dihydroxycyclopentyl}methyl sulfamate] | < 10 | 97
COCc1ccc(Cn2ccc(C(=O)c3cncnc3N[C@@H]3C[C@H](COS(N)(=O)=O)[C@@H](O)[C@@H]3F)c2)o1 [Compound I-41, [(1R,2R,3R,4R)-3-fluoro-2-hydroxy-4-({5-[(1-{[5-(methoxymethyl)-2-furyl]methyl}-1H-pyrrol-3-yl)carbonyl]pyrimidin-4-yl}amino)cyclopentyl]methyl sulfamate] | < 10 | 94
NS(=O)(=O)OC[C@H]1C[C@@H](Nc2ncncc2C(=O)c2ccn(Cc3cccc(I)c3)n2)[C@@H](F)[C@@H]1O [Compound I-42, {(1R,2R,3R,4R)-3-fluoro-2-hydroxy-4-[(5-{[1-(3-iodobenzyl)-1H-pyrazol-3-yl]carbonyl}pyrimidin-4-yl)amino]cyclopentyl}methyl sulfamate] | < 10 | 99
NS(=O)(=O)OC[C@H]1C[C@@H](Nc2ncncc2C(=O)c2ccn(Cc3ccc(Cl)c(Br)c3)c2)C[C@@H]1O [Compound I-43, {(1R,2S,4R)-4-[(5-{[1-(3-bromo-4-chlorobenzyl)-1H-pyrrol-3-yl]carbonyl}pyrimidin-4-yl)amino]-2-hydroxycyclopentyl}methyl sulfamate] | < 10 | 98
NS(=O)(=O)OC[C@H]1C[C@@H](Nc2ncncc2C(=O)c2cc(F)n(Cc3cccc(Br)c3)c2)[C@@H](F)[C@@H]1O [Compound I-44, {(1R,2R,3R,4R)-4-[(5-{[1-(3-Bromobenzyl)-5-fluoro-1H-pyrrol-3-yl]carbonyl}pyrimidin-4-yl)amino]-3-fluoro-2-hydroxycyclopentyl}methyl sulfamate] | < 10 | 99
Cn1nc(C(F)(F)F)cc1Cn1ccc(C(=O)c2cncnc2N[C@@H]2C[C@H](COS(N)(=O)=O)[C@@H](O)C2)c1 [Compound I-45, [(1R,2S,4R)-2-hydroxy-4-({5-[(1-{[1-methyl-3-(trifluoromethyl)-1H-pyrazol-5-yl]methyl}-1H-pyrrol-3-yl)carbonyl]pyrimidin-4-yl}amino)cyclopentyl]methyl sulfamate] | 10 to 100 | 93
NS(=O)(=O)OC[C@H]1C[C@@H](Nc2ncncc2C(=O)c2ccn(Cc3ccc(C(F)(F)F)c(F)c3)n2)[C@H](O)[C@@H]1O [Compound I-46, [(1R,2R,3S,4R)-4-{[5-({1-[3-fluoro-4-(trifluoromethyl)benzyl]-1H-pyrazol-3-yl}carbonyl)pyrimidin-4-yl]amino}-2,3-dihydroxycyclopentyl]methyl sulfamate] | < 10 | 96
NS(=O)(=O)OC[C@H]1C[C@@H](Nc2ncncc2C(=O)c2ccn(Cc3ccc(Cl)cc3)n2)C[C@@H]1O [Compound I-47, {(1R,2S,4R)-4-[(5-{[1-{4-chlorobenzyl)-1H-pyrazol-3-yl]carbonyl}pyrimidin-4-yl)amino]-2-hydroxycyclopentyl}methyl sulfamate] | < 10 | 98
NS(=O)(=O)OC[C@H]1C[C@@H](Nc2ncncc2C(=O)c2ccn(Cc3ccc4ccccc4c3)n2)C[C@@H]1O [Compound I-48, {(1R,2S,4R)-2-hydroxy-4-[(5-{[1-(2-naphthylmethyl)-1H-pyrazol-3-yl]carbonyl}pyrimidin-4-yl)amino]cyclopentyl}methyl sulfamate] | < 10 | 96
NS(=O)(=O)OC[C@H]1C[C@@H](Nc2ncncc2C(=O)c2ccn(Cc3sc4ccccc4c3Cl)c2)[C@@H](F)[C@@H]1O [Compound I-49, [(1R,2R,3R,4R)-4-{[5-({1-[(3-chloro-1-benzothiophen-2-yl)methyl]-1H-pyrrol-3-yl}carbonyl)pyrimidin-4-yl]amino}-3-fluoro-2-hydroxycyclopentyl]methyl sulfamate] | < 10 | 93
NS(=O)(=O)OC[C@H]1C[C@@H](Nc2ncncc2C(=O)c2ccn(Cc3cc(C(F)(F)F)ccc3Cl)n2)C[C@@H]1O [Compound I-50, [(1R,2S,4R)-4-{[5-({1-[2-chloro-5-(trifluoromethyl)benzyl]-1H-pyrazol-3-yl}carbonyl)pyrimidin-4-yl]amino}-2-hydroxycyclopentyl]methyl sulfamate] | < 10 | 99
Cc1ccnc(Cn2ccc(C(=O)c3cncnc3N[C@@H]3C[C@H](COS(N)(=O)=O)[C@@H](O)[C@H]3O)n2)c1 [Compound I-51, [(1R,2R,3S,4R)-2,3-dihydroxy-4-{[5-({1-[(4-methylpyridin-2-yl)methyl]-1H-pyrazol-3-yl}carbonyl)pyrimidin-4-yl]amino}cyclopentyl]methyl sulfamate] | < 10 | 100
NS(=O)(=O)OC[C@H]1C[C@@H](Nc2ccncc2C(=O)c2ccn(Cc3cccc(Cl)c3)n2)C[C@@H]1O [Compound I-52, {(1R,2S,4R)-4-[(3-{[1-(3-Chlorobenzyl)-1H-pyrazol-3-yl]carbonyl}pyridin-4-yl)amino]-2-hydroxycyclopentyl}methyl sulfamate] | < 10 | 99
NS(=O)(=O)OC[C@H]1C[C@@H](Nc2ncncc2C(=O)c2ccn(Cc3ccnc(C(F)(F)F)c3)n2)C[C@@H]1O [Compound I-53, [(1R,2S,4R)-2-hydroxy-4-({5-[(1-{[2-(trifluoromethyl)pyridin-4-yl]methyl}-1H-pyrazol-3-yl)carbonyl]pyrimidin-4-yl}amino)cyclopentyl]methyl sulfamate] | 10 to 100 | 79
NS(=O)(=O)OC[C@H]1C[C@@H](Nc2ncnc(Cl)c2C(=O)c2ccn(Cc3cccc(Cl)c3)n2)C[C@@H]1O [Compound I-54, {(1R,2S,4R)-4-[(6-Chloro-5-{[1-(3-chlorobenzyl)-1H-pyrazol-3-yl]carbonyl}pyrimidin-4-yl)amino]-2-hydroxycyclopentyl}methyl sulfamate] | 10 to 100 | 63
